Assay results reported in patent US20170348306A1, “METHODS OF TREATING CANCER” (GLAXOSMITHKLINE LLC, priority 2011, published 2017).

Tests used:
Test in all cases: 6 day proliferation assay (assay 1)
Assay type in all cases: cell-based
L428 = settings: Homo sapiens, L-428, 144 h, 6 days, EZH2 Y641S, read-out: Compound A gIC50
Method: (§1) Cells were cultured in appropriate medium in flasks to 80-100% confluency. Cells were harvested, counted and plated at a pre-determined optimal seeding density ranging from 50 cells per well to 4000 cells per well depending on the growth characteristics of individual cell lines in 384-well tissue culture plates (Greiner #781090). Plates were then incubated overnight at 37° C., 5% CO2. Cells were treated with compound using a 20 point 1:2 fold dilution scheme with a final concentration of 0.15% DMSO. One column per plate contained cells treated with 0.15% DMSO only, and one column contained no cells to serve as background. Plates were incubated at 37° C., 5% CO2 for 6 days. A time zero (t0) reading was taken on the day of compound addition. To develop the plates, 25 μL of Cell Titer Glo (Promega #G7572) was added to each well and incubated at room temperature for 12 minutes. Luminescence was measured on the Tecan Safire2.
(§2) Data were analyzed using Assay Client software. Dose response curves were generated based on percent of growth compared to t0. Growth IC50 values were calculated using a 4 parameter logistic model.
(§3) In addition, further optimization of the EZH2 inhibition assay

HT = settings: Homo sapiens, 144 h, 6 days, EZH2 WT, read-out: Compound A gIC50
Method: as §1, §2, §3

SU-DHL-5 = settings: Homo sapiens, 144 h, 6 days, EZH2 WT, read-out: Compound A gIC50
Method: as §1, §2, §3

RL = settings: Homo sapiens, 144 h, 6 days, EZH2 Y641N, read-out: Compound A gIC50
Method: as §1, §2, §3

BC-1 = settings: Homo sapiens, BC1, 144 h, 6 days, EZH2 WT, read-out: Compound A gIC50
Method: as §1, §2, §3

RPMI-6666 = settings: Homo sapiens, 144 h, 6 days, EZH2 WT, read-out: Compound A gIC50
Method: as §1, §2, §3

SU-DHL-10 = settings: Homo sapiens, SU-DHL10, 144 h, 6 days, EZH2 Y641F, read-out: Compound A gIC50
Method: as §1, §2, §3

Jiyoye = settings: Homo sapiens, 144 h, 6 days, EZH2 WT, read-out: Compound A gIC50
Method: as §1, §2, §3

Hs445 = settings: Homo sapiens, Hs 445, 144 h, 6 days, EZH2 WT, read-out: Compound A gIC50
Method: as §1, §2, §3

NAMALWA = settings: Homo sapiens, 144 h, 6 days, EZH2 WT, read-out: Compound A gIC50
Method: as §1, §2, §3

JM1 = settings: Homo sapiens, 144 h, 6 days, EZH2 WT, read-out: Compound A gIC50
Method: as §1, §2, §3

CA46 = settings: Homo sapiens, 144 h, 6 days, EZH2 WT, read-out: Compound A gIC50
Method: as §1, §2, §3

HsSullan = settings: Homo sapiens, 144 h, 6 days, EZH2 WT, read-out: Compound A gIC50
Method: as §1, §2, §3

WSU-DLCL-2 = settings: Homo sapiens, WSUDLCL2, 144 h, 6 days, EZH2 Y641F, read-out: Compound A gIC50
Method: as §1, §2, §3

CROAP2 = settings: Homo sapiens, CRO-AP2, 144 h, 6 days, EZH2 WT, read-out: Compound A gIC50
Method: as §1, §2, §3

DOHH2 = settings: Homo sapiens, DOHH-2, 144 h, 6 days, EZH2 WT, read-out: Compound A gIC50
Method: as §1, §2, §3

DG75 = settings: Homo sapiens, DG-75, 144 h, 6 days, EZH2 WT, read-out: Compound A gIC50
Method: as §1, §2, §3

BC-3 = settings: Homo sapiens, 144 h, 6 days, EZH2 WT, read-out: Compound A gIC50
Method: as §1, §2, §3

P3HR1 = settings: Homo sapiens, P3HR-1, 144 h, 6 days, EZH2 WT, read-out: Compound A gIC50
Method: as §1, §2, §3

HDMyZ = settings: Homo sapiens, 144 h, 6 days, EZH2 WT, read-out: Compound A gIC50
Method: as §1, §2, §3

DB = settings: Homo sapiens, 144 h, 6 days, EZH2 Y641N, read-out: Compound A gIC50
Method: as §1, §2, §3

OCI-LY-19 = settings: Homo sapiens, OCI-LY19, 144 h, 6 days, EZH2 Y641N, read-out: Compound A gIC50
Method: as §1, §2, §3

Karpass422 = settings: Homo sapiens, 144 h, 6 days, EZH2 Y641N, read-out: Compound A gIC50
Method: as §1, §2, §3

Raji = settings: Homo sapiens, 144 h, 6 days, EZH2 WT, read-out: Compound A gIC50
Method: as §1, §2, §3

Toledo = settings: Homo sapiens, 144 h, 6 days, EZH2 WT, read-out: Compound A gIC50
Method: as §1, §2, §3

Ramos = settings: Homo sapiens, 144 h, 6 days, EZH2 WT, read-out: Compound A gIC50
Method: as §1, §2, §3

SKM1 = settings: Homo sapiens, SKM-1, 144 h, 6 days, EZH2 Y641C, read-out: Compound A gIC50
Method: as §1, §2, §3

CROAP5 = settings: Homo sapiens, CRO-AP5, 144 h, 6 days, EZH2 WT, read-out: Compound A gIC50
Method: as §1, §2, §3

MJ = settings: Homo sapiens, 144 h, 6 days, EZH2 WT, read-out: Compound A gIC50
Method: as §1, §2, §3

U937 = settings: Homo sapiens, U-937, 144 h, 6 days, EZH2 WT, read-out: Compound A gIC50
Method: as §1, §2, §3

Daudi = settings: Homo sapiens, 144 h, 6 days, EZH2 WT, read-out: Compound A gIC50
Method: as §1, §2, §3

BC-2 = settings: Homo sapiens, 144 h, 6 days, EZH2 WT, read-out: Compound A gIC50
Method: as §1, §2, §3

RCK8 = settings: Homo sapiens, 144 h, 6 days, EZH2 WT, read-out: Compound A gIC50
Method: as §1, §2, §3

Pfeiffer = settings: Homo sapiens, 144 h, 6 days, EZH2 A677G, read-out: Compound A gIC50
Method: as §1, §2, §3

REC1 = settings: Homo sapiens, 144 h, 6 days, EZH2 WT, read-out: Compound A gIC50
Method: as §1, §2, §3

Farage = settings: Homo sapiens, 144 h, 6 days, EZH2 WT, read-out: Compound A gIC50
Method: as §1, §2, §3

1A2 = settings: Homo sapiens, 144 h, 6 days, EZH2 WT, read-out: Compound A gIC50
Method: as §1, §2, §3

SU-DHL-4 = settings: Homo sapiens, 144 h, 6 days, EZH2 Y641S, read-out: Compound A gIC50
Method: as §1, §2, §3

CCCc1cc(C)[nH]c(=O)c1CNC(=O)c1cc(-c2ccc(N3CCN(C)CC3)nc2)cc2c1cnn2C(C)C [Compound A, 1-(1-methylethyl)-N-[(6-methyl-2-oxo-4-propyl-1,2-dihydro-3-pyridinyl)methyl]-6-[6-(4-methyl-1-piperazinyl)-3-pyridinyl]-1H-indazole-4-carboxamide]
IC50 (L428): 3.1 µM
IC50 (HT): 3.71 µM
IC50 (SU-DHL-5): 3.44 µM
IC50 (RL): 4.66 µM
IC50 (BC-1): 8.82 µM
IC50 (RPMI-6666): 3.1 µM
IC50 (SU-DHL-10): 0.324 µM
IC50 (Jiyoye): 2.47 µM
IC50 (Hs445): 1.57 µM
IC50 (NAMALWA): 6.22 µM
IC50 (JM1): 6.66 µM
IC50 (CA46): 8.63 µM
IC50 (HsSullan): 3.94 µM
IC50 (WSU-DLCL-2): 3.1 µM
IC50 (CROAP2): 11.3 µM
IC50 (DOHH2): 6.43 µM
IC50 (DG75): 6.23 µM
IC50 (BC-3): 5.28 µM
IC50 (P3HR1): 7.8 µM
IC50 (HDMyZ): 7.21 µM
IC50 (DB): 9.5 µM
IC50 (OCI-LY-19): 4.48 µM
IC50 (Karpass422): 1.32 µM
IC50 (Raji): 6.14 µM
IC50 (Toledo): 21.8 µM
IC50 (Ramos): 3.51 µM
IC50 (SKM1): 6.16 µM
IC50 (CROAP5): 6.16 µM
IC50 (MJ): 3.28 µM
IC50 (U937): 7.9 µM
IC50 (Daudi): 13.4 µM
IC50 (BC-2): 2.18 µM
IC50 (RCK8): 5.56 µM
IC50 (Pfeiffer): 0.189 µM
IC50 (REC1): 2.91 µM
IC50 (Farage): 4.79 µM
IC50 (1A2): 9.26 µM
IC50 (SU-DHL-4): 14 µM
